Eleven compounds from patent publication US9155729B2, “Thiazolidinedione analogues” (Metabolic Solutions Development Company, LLC, priority 2006, dated 2015) can be followed below.

The target of one test is T1, PPARγ (Homo sapiens, UniProt P37231).
T1 construct: purchased Invitrogen Corporation, Carlsbad, Calif
T1 sequence (P37231 238-503 limits assumed): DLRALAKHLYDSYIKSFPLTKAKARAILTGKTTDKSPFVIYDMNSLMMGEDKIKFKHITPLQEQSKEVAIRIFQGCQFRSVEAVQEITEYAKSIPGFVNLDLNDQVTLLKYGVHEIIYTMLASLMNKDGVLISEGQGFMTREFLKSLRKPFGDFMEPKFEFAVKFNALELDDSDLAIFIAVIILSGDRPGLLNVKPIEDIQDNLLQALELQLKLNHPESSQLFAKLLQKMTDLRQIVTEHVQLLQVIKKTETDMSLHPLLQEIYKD
The test is described as follows: Commercial PPARγ binding assay (Invitrogen, PPAR-LBD/Fluormone PPAR Green complex). To be noted: for PPARγ binding signal (fluorescence polarization, Fluormone PPAR Green displacement): mean of three experiments; for Binding to PPARγ (in words): referring to FIG. 1 and Table B. Here is the method:
The ability of several exemplary compounds of the present invention, shown in Table A, to bind to PPARγ was measured using a commercial binding assay (Invitrogen Corporation, Carlsbad, Calif.) that measures the test compounds ability to bind with PPAR-LBD/Fluormone PPAR Green complex. These assays were performed on three occasions with each assay using four separate wells (quadruplicate) at each concentration of tested compound. The data are mean and SEM of the values obtained from the three experiments. […] Compounds were added at the concentrations shown, which range from 0.1-100 micromolar.

In a further test the test system is Diabetic KKAy mice. The test is described as follows: Glucose, insulin and triglyceride in diabetic KKAy mice, 4 days oral dosing. The class given is in vivo. To be noted: for Glucose / Insulin / Triglycerides: 93 mg/kg orally for 4 days, fasted, blood approx. 18 hours after last dose, mean and SEM; for Effectiveness at lowering glucose, insulin and triglyceride levels / antidiabetic activity (in words): Table C. As for the experimental part: The insulin sensitizing and antidiabetic pharmacology are measured in the KKA^Y mice as previously reported [Hofmann, C., Lomez, K., and Colca, J. R. (1991). Glucose transport deficiency corrected by treatment with the oral anti-hyperglycemic agent Pioglitazone. Endocrinology, 129:1915-1925.]. Compounds are formulated in 1% sodium carboxy methylcellulose, and 0.01% tween 20 and dosed daily by oral gavage.
Compounds were formulated by suspension and orally dosed to KKAy mice at 93 mg/kg for 4 days. The compounds were first dissolved in DMSO and then placed into aqueous suspension containing 7-10% DMSO, 1% sodium methylcarboxycellulose, and 0.01% Tween 20. On the fifth day, the mice were fasted and blood samples were obtained approximately 18 hours after the last dose. The parameters were measured by standard assay methods. Data are mean and SEM N=6-12 mice.

Marks after values point to notes of the source that are not given here.

For `CCc1ccc([C@@H](O)COc2ccc(CC3SC(=O)NC3=O)cc2)nc1` (some centres unmarked) [Compound 2], the “PPARγ binding signal (fluorescence polarization, Fluormone PPAR Green displacement)” value (shortened to “PPARγ binding signal”) came out at 238 at PPARγ (1 μM compound); 236 at PPARγ (3 μM compound); 223 on PPARγ (10 μM compound); 162 on PPARγ (50 μM compound); 136 at PPARγ (100 μM compound); 231 on PPARγ (.1 μM compound). The “PPARγ binding signal” value on PPARγ (.3 μM compound) turned out to be 233. The “Binding to PPARγ (in words)” value on PPARγ is “particularly poor binders”. The Glucose in the test with Diabetic KKAy mice (N=6-12) was 428 +/− 17* mg/dl. In the test with Diabetic KKAy mice (N=6-12), the Insulin is reported as 5.7 +/− 1.6* ng/ml. In addition, in the test on Diabetic KKAy mice (N=6-12), the Triglycerides is 187 +/− 29* mg/dl. In addition, in the test on Diabetic KKAy mice, the “Effectiveness at lowering glucose, insulin and triglyceride levels / antidiabetic activity (in words)” value is recorded as “equivalent antidiabetic activity”.
As for `CCc1ccc(CCOc2ccc(CC3(C)SC(=O)NC3=O)cc2)nc1` (single isomer, unassigned) [Compound 4], the “PPARγ binding signal” value on PPARγ (1 μM compound) was determined as 234; at PPARγ (3 μM compound) it was 224; at PPARγ (10 μM compound) it was 200; on PPARγ (50 μM compound), 122; at PPARγ (100 μM compound), 91; on PPARγ (.1 μM compound) it was 236. In addition, the “PPARγ binding signal” value on PPARγ (.3 μM compound) worked out at 230.
Regarding `CCc1ccc(CCOc2ccc(CC3(C)SC(=O)NC3=O)cc2)nc1` (single isomer, unassigned) [Compound 7], the “PPARγ binding signal” value stood at 248 at PPARγ (1 μM compound); 237 at PPARγ (3 μM compound); 210 at PPARγ (10 μM compound); 144 on PPARγ (50 μM compound); 105 at PPARγ (100 μM compound); 249 at PPARγ (.1 μM compound). Besides, on PPARγ (.3 μM compound), the “PPARγ binding signal” value is 246. Also, at PPARγ, the “Binding to PPARγ (in words)” value is on record as “better PPARγ binding compounds”. Besides, the Glucose with Diabetic KKAy mice (N=6-12, 93 mg/kg) came out at 631 ± 7 mg/dL. For the same compound, in the test with Diabetic KKAy mice (N=6-12, 93 mg/kg), the Insulin is 16.3 ± 1.2 ng/mL. The compound also came in with a Triglycerides with Diabetic KKAy mice (N=6-12, 93 mg/kg) of 374 ± 15 mg/dL. In the test on Diabetic KKAy mice, the “Effectiveness at lowering glucose, insulin and triglyceride levels / antidiabetic activity (in words)” value was “not as effective as compounds 1 and 2”.
With `CCc1ccc(C(=O)COc2ccc(CC3(C)SC(=O)NC3=O)cc2)nc1` (centres unmarked) [Compound 10], the “PPARγ binding signal” value on PPARγ (1 μM compound) worked out at 240; at PPARγ (3 μM compound), 234; at PPARγ (10 μM compound), 219; on PPARγ (50 μM compound), 126; on PPARγ (100 μM compound) it was 93; on PPARγ (.1 μM compound), 245. Besides, at PPARγ (.3 μM compound), the “PPARγ binding signal” value came to 239.
Turning to `CCc1ccc([C@@H](O)COc2ccc(CC3(C)SC(=O)NC3=O)cc2)nc1` (some centres unmarked) [Compound 8], the “PPARγ binding signal” value is recorded as 239 on PPARγ (1 μM compound); 241 at PPARγ (3 μM compound); 233 at PPARγ (10 μM compound); 199 on PPARγ (50 μM compound); 186 on PPARγ (100 μM compound); 237 at PPARγ (.1 μM compound). Moreover, the “PPARγ binding signal” value on PPARγ (.3 μM compound) is recorded as 243. In addition, the Glucose with Diabetic KKAy mice (N=6-12) came out at 756 ± 31 mg/dL. The Insulin in the test with Diabetic KKAy mice (N=6-12) came out at 12.8 ± 2.6 ng/mL. Besides, the Triglycerides in the test on Diabetic KKAy mice (N=6-12) was 465 ± 64 mg/dL.
Regarding `CCc1ccc(C(=CC(=O)OC)COc2ccc(CC3SC(=O)NC3=O)cc2)nc1` (centres unmarked) [Compound 11], the “PPARγ binding signal” value at PPARγ (1 μM compound) was determined as 232; on PPARγ (3 μM compound), 229; on PPARγ (10 μM compound), 165; on PPARγ (50 μM compound) it was 128; on PPARγ (100 μM compound), 78; at PPARγ (.1 μM compound), 230. Also, on PPARγ (.3 μM compound), the “PPARγ binding signal” value stood at 227. This compound also came in with a Glucose in the test with Diabetic KKAy mice (N=6-12) of 662 ± 40 mg/dL. The compound also had an Insulin with Diabetic KKAy mice (N=6-12) of 18.9 ± 1.6 ng/mL. In the test with Diabetic KKAy mice (N=6-12), this compound registered a Triglycerides of 476 ± 106 mg/dL.
Take `CCc1ccc(CCOc2ccc(CC3(C)SC(=O)NC3=O)cc2)nc1` (single isomer, unassigned) [Compound 6]: the “PPARγ binding signal” value on PPARγ (1 μM compound) came to 233; at PPARγ (3 μM compound), 223; at PPARγ (10 μM compound) it was 198; on PPARγ (50 μM compound), 126; on PPARγ (100 μM compound) it was 99; on PPARγ (.1 μM compound), 246. Also, the “PPARγ binding signal” value at PPARγ (.3 μM compound) was 246. On PPARγ, the “Binding to PPARγ (in words)” value was “better PPARγ binding compounds”. The same compound came in with a Glucose with Diabetic KKAy mice (N=6-12, 93 mg/kg) of 694 ± 63 mg/dL. In the test with Diabetic KKAy mice (N=6-12, 93 mg/kg), this compound showed an Insulin of 11.1 ± 1.6 ng/mL. Moreover, in the test on Diabetic KKAy mice (N=6-12, 93 mg/kg), the Triglycerides was found to be 298 ± 49 mg/dL. Also, in the test with Diabetic KKAy mice, the “Effectiveness at lowering glucose, insulin and triglyceride levels / antidiabetic activity (in words)” value is “not as effective as compounds 1 and 2”.
As to `CCc1ccc([C@H](O)COc2ccc(CC3(C)SC(=O)NC3=O)cc2)nc1` (some centres unmarked) [Compound 9], the “PPARγ binding signal” value at PPARγ (1 μM compound) is recorded as 239; on PPARγ (3 μM compound), 233; on PPARγ (10 μM compound), 234; on PPARγ (50 μM compound) it was 189; at PPARγ (100 μM compound) it was 164; at PPARγ (.1 μM compound), 237. The “PPARγ binding signal” value at PPARγ (.3 μM compound) is 237. Besides, the Glucose in the test on Diabetic KKAy mice (N=6-12) came to 740 ± 37 mg/dL. Further, the Insulin in the test with Diabetic KKAy mice (N=6-12) came to 14.8 ± 2.5 ng/mL. This compound gave a Triglycerides with Diabetic KKAy mice (N=6-12) of 354 ± 43 mg/dL.
For `CCc1ccc(C(COc2ccc(CC3SC(=O)NC3=O)cc2)CC(=O)OC)nc1` (centres unmarked) [Compound 12], the “PPARγ binding signal” value on PPARγ (1 μM compound) amounted to 198; on PPARγ (3 μM compound), 155; on PPARγ (10 μM compound), 112; at PPARγ (50 μM compound), 80; on PPARγ (100 μM compound), 85; at PPARγ (.1 μM compound), 243. In addition, on PPARγ (.3 μM compound), the “PPARγ binding signal” value is on record as 222.
Take `CCc1ccc(C(=CCO)COc2ccc(CC3SC(=O)NC3=O)cc2)nc1` (centres unmarked) [Compound 13]: the “PPARγ binding signal” value on PPARγ (1 μM compound) is 229; at PPARγ (3 μM compound), 230; at PPARγ (10 μM compound) it was 204; at PPARγ (50 μM compound), 148; at PPARγ (100 μM compound) it was 108; on PPARγ (.1 μM compound), 244. In addition, the “PPARγ binding signal” value at PPARγ (.3 μM compound) came out at 243.
As for `CCc1ccc(C(O)COc2ccc(CC3(C)SC(=O)NC3=O)cc2)nc1` (centres unmarked) [Compound 5], the “PPARγ binding signal” value was found to be 228 at PPARγ (1 μM compound); 226 on PPARγ (3 μM compound); 212 on PPARγ (10 μM compound); 132 on PPARγ (50 μM compound); 106 at PPARγ (100 μM compound); 235 on PPARγ (.1 μM compound). For the same compound, the “PPARγ binding signal” value on PPARγ (.3 μM compound) is given as 230.
